From patent publication US6583150B1, “Pharmaceutical composition based on polyaromatic compounds” (Laboratorie L. Lafon, priority 1999, dated 2003)
pIC50: −log10 of the molar value.

How the values were obtained:
[1] = test system: 12 human tumor lines: U-87MG, U-373MG, SW 1088, T24, J82, HCT-15, LoVo, MCF7, T-47D, A549, A-427 and PC-3; assay: MTT cytotoxicity test, panel of the 12 human tumor lines; assay type: cell-based; details: Homo sapiens, read-out: average IC50
Experimental: (§1) The influence of the compounds of formulae I and II on neoplastic cells was evaluated using the MTT calorimetric test. The principle of the MTT test is based on the mitochondrial reduction by metabolically active live cells of the yellow-colored product MTT (3-(4,5-dimethylthiazol-2-yl)-2,5-diphenyltetrazolium bromide) to a blue-colored product, formazan. The amount of formazan thus obtained is directly proportional to the amount of live cells present in the culture well(s). This amount of formazan is measured by spectrophotometry.
(§2) The cell lines are maintained in monolayer culture at 37° C. in stoppered culture dishes containing 25 MM HEPES MEM (Minimum Essential Medium) base medium. This medium, which is suitable for growing a range of varied diploid or primary mammalian cells, is then supplemented: […]
(§3) with a an amount of 5% FCS (Fetal Calf Serum) decomplemented at 56° C. for 1 hour, with 0.6 mg/mL of L-glutamine, with 200 IU/mL of penicillin, with […] of streptomycin, with 0.1 mg/mL of gentamicin.
(§4) The 12 human cancer cell lines used were obtained from the American Type Culture Collection (ATCC, Rockville, Md., USA). These 12 cell lines are:
U-373MG (code ATCC: HTB-17) and U-87MG (code ATCC: HTB-14) which are two glioblastomas, SW1088 (code ATCC: HTB-12) which is an astrocytoma, A549 (code ATCC: CCL-185) and A-427 (code ATCC: HTB-53) which are two non-small-cell lung cancers, HCT-15 (code ATCC: CCL-225) and LoVo (code ATCC: CCL-229) which are two colorectal cancers, T-47D (code ATCC: HTB-133) and MCF7 (code ATCC: HTB-22) which are two breast cancers, J82 (code ATCC: HTB-1) and T24 (code ATCC: HTB-4) which are two bladder cancers, PC-3 (code ATCC: CRL-1435) which is a prostate cancer.
Experimentally: 100 μl of a cell suspension containing 200 000 to 50 000 (depending on the cell type used) cells/mL of culture medium are inoculated in flat-bottomed 96-well multi-well plates and are incubated at 37° C. under an atmosphere comprising 5% CO2 and 70% humidity. After incubating for 24 hours, the culture medium is replaced with 100 μl of fresh medium containing either the various test compounds at concentrations ranging from 10^−5 to 10^−10 M or the solvent used to dissolve the test products (control condition). After incubating for 72 hours under the above conditions, the culture medium is replaced with 100 μl of a yellowish solution of MTT dissolved at a rate of 1 mg/mL in RPMI 1640. The microplates are reincubated for 3 hours at 37° C. and then centrifuged for 10 minutes at 400×g. The yellowish solution of MTT is removed and the blue formazan crystals formed at the cellular level are dissolved in 100 μl of DMSO. The microplates are then agitated for 5 minutes. The intensity of the resulting blue coloration, and thus of the conversion of the yellow MTT product into blue formazan by the cells that are still alive at the end of the experiment is quantified by spectrophotometry using a DYNATECH IMMUNOASSAY SYSTEM machine at wavelengths of 570 nm and 630 nm corresponding, respectively, to the maximum absorption wavelengths of formazan and to the background noise. Software built into the spectrophotometer calculates the average optical density values and also the standard deviation (Std. Dev.) and standard error of mean (SEM) values.
The inhibitory activity on the cell growth of the compounds of formula I and of formula II on the different tumor cell lines was compared with that of the natural product meridine (CRL 8348). All of the compounds of formula I and of formula II show significant inhibitory activity on the cell proliferation of the 12 human tumor lines: U-87MG, U-373MG, SW 1088, T24, J82, HCT-15, LoVo, MCF7, T-47D, A549, A-427 and PC-3 with an inhibitory concentration 50 (IC50) which is between 10^−6 M and 10^−10M, depending on the compounds and the tumor lines tested. By way of example, the values of the concentrations flanking the IC50 which are obtained on the various cell lines are given in table II: […]

[2] = Determination of the maximum tolerated dose (MTD); assay type: in vivo; details: mouse, in vivo, ip; single intraperitoneal administration, survival over 14 days, B6D2F1/Jico mice
Experimental: The evaluation of the maximum tolerated dose was carried out on 4- to 6-week-old B6D2F1/Jico mice. […] The value of the MTD (expressed in mg/kg) is determined from observing the survival rate of the animals over a period of 14 days after a single administration of the product under consideration. The change in the weight of the animals is also monitored over this period.

U-373MG = assay: MTT cytotoxicity test, U-373MG; assay type: cell-based; details: Homo sapiens, U373 MG, U-373MG glioblastoma, 72 hours, read-out: concentrations flanking the IC50
Experimental: as §1, §2, §3, §4
(§5) U-373MG (code ATCC: HTB-17) and U-87MG (code ATCC: HTB-14) which are two glioblastomas, Experimentally: 100 μl of a cell suspension containing 200 000 to 50 000 (depending on the cell type used) cells/mL of culture medium are inoculated in flat-bottomed 96-well multi-well plates and are incubated at 37° C. under an atmosphere comprising 5% CO2 and 70% humidity. […] The intensity of the resulting blue coloration, and thus of the conversion of the yellow MTT product into blue formazan by the cells that are still alive at the end of the experiment is quantified by spectrophotometry using a DYNATECH IMMUNOASSAY SYSTEM machine at wavelengths of 570 nm and 630 nm corresponding, respectively, to the maximum absorption wavelengths of formazan and to the background noise. […]

A549 = assay: MTT cytotoxicity test, A549; assay type: cell-based; details: Homo sapiens, A549 non-small-cell lung cancer, 72 hours, read-out: concentrations flanking the IC50
Experimental: as §1, §2, §3
The 12 human cancer cell lines used were obtained from the American Type Culture Collection (ATCC, Rockville, Md., USA). These 12 cell lines are: […]

U-87MG = assay: MTT cytotoxicity test, U-87MG; assay type: cell-based; details: Homo sapiens, U-87MG glioblastoma, 72 hours, read-out: concentrations flanking the IC50
Experimental: as §1, §2, §3, §4, §5

In the case of `COc1ccnc2c1C(=O)c1c(-c3ccccc3NC(=O)C(F)(F)F)ccnc1C2=O` [CRL 8275, 6-Methoxy-4-(2-trifluoroacetamidophenyl)pyrido-[3,2-g]quinoline-5,10-dione], the pIC50 [1] was 8.64, the MTD at 14 days [2] was 80 mg/kg and the pIC50 (U-373MG) was > 10.00. The pIC50 (A549) was > 10.00 and the pIC50 (U-87MG) was > 10.00.
